Results on eleven compounds are retold here after patent US12006330B2, “Substituted macrocyclic compounds and related methods of treatment” (Alkermes, Inc., priority 2020, dated 2024).

For one data set, the system named is Sprague-Dawley rats. Kind of data set: Assessment of wake promotion in Sprague-Dawley rats (EEG/EMG). The class given is in vivo, rat. Particulars: male Sprague-Dawley rats, 3 mpk, dosed at ZT5, 6-hour post-dose period. The protocol:
Wake promotion was assessed using electroencephalography (EEG) and electromyography (EMG) in adult male Sprague-Dawley rats. All rats (Charles River Laboratories, Raleigh, NC, USA) were intraperitoneally implanted with telemetry devices (F50-EEE, Data Sciences International Inc., MN, USA) under isoflurane anesthesia. For EEG, stainless steel screws were implanted over frontal cortex and parietal cortex, and reference screws were placed over cerebellum. Additionally, an electrode was placed in neck muscle for EMG. Rats were given carprofen post-surgery and underwent a 7 to 10-day recovery period. Rats habituated to the experimental room for 7 days and were maintained on a 12-hour light-dark cycle.
EEG and EMG data were recorded using the DSI telemetry system and Ponemah software (Data Sciences International Inc., MN, USA). Sleep-wake stages were scored both manually and with Somnivore, a supervised machine learning software platform, in 10 second epochs. Records were visually inspected as needed post-processing.
All test compounds were dissolved in 5% DMSO and suspended in 95% saline with 0.5% methylcellulose and 0.5% tween. […] Unless otherwise indicated, all compounds were dosed orally. Recordings for each rat were initiated immediately after dosing and lasted for 6 hours post-dose.
Two key endpoints include wakefulness time and cortical activation time. Wakefulness time is derived from the sleep-wake stage analysis. Cortical activation time is based on the duration in which frontal gamma oscillatory activity (30-100 Hz), a key feature of wakefulness, was elevated relative to a pre-treatment baseline. Mean cortical activation time was computed relative to vehicle treatment for the 6-hour post-dose period.

Data set [1] in a line: Hepatocytes stability assay (human hepatocytes). Particulars: both sexes, human, cryopreserved hepatocytes, cryopreserved human hepatocytes (pool of 50 mixed gender); 1 μM test compound; 1×10^6 cell/mL; 37 degrees C; read-out: CLint (μL/min/million cells). The class given is in vitro ADME. In a few lines: (§1)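 Compound at 1 μM (0.1% DMSO) was incubated with cryopreserved pooled human hepatocytes, 1×10^6 cells/mL in Krebs-Henseleit buffer, at 37 °C, sampled up to 240 min. Parent depletion by LC-MS/MS; half-life from first-order decay gave CLint, scaled to hepatic clearance by well-stirred model (fu assumed 1) and extraction ratio.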

The subject of another data set is human hepatocytes. Kind of data set: Hepatocytes stability assay (human hepatocytes). The class given is in vitro ADME. Particulars: human hepatocytes; scaled hepatic clearance divided by liver blood flow (well-stirred model, fu assumed unity). Put shortly: as §1
Another data set concerns MDR1. As to the kind of experiment: MDCK-MDR1 permeability assay. The class given is in vitro ADME. Particulars: dog, MDCK-MDR1, MDCK-MDR1 cells; for efflux ratio at 2 h, 3 μM: Papp B→A divided by Papp A→B, read-out: Efflux ratio (ER); for Papp A→B at 2 h, 3 μM: test compound 3 μM, 2 hours at 37 degrees C, apical to basolateral. Put shortly: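 Test compound at 3 μM in HBSS was dosed apical-to-basolateral (with 100 μM Lucifer Yellow) and basolateral-to-apical across MDCK-MDR1 monolayers at 37 °C for 2 h. Receiver and donor samples were quantified by LC-MS/MS. Papp = dQ/dt×1/A×C0, efflux ratio = Papp(B→A)/Papp(A→B), and percent recovery was also derived.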

Some results are limits rather than exact numbers.

Take `COC(=O)N1CCC[C@H](NS(C)(=O)=O)[C@@H]1CO[C@H]1CC[C@@H](c2ccccc2)CC1` [Reference Compound A, methyl (2R,3S)-3-((methylsulfonyl)amino)-2-(((cis-4-phenylcyclohexyl)oxy)methyl)-piperidine-l-carboxylate, reference compound]: the “Mean cortical activation time (% vehicle treatment)” value in the data set on Sprague-Dawley rats (SC) was found to be 118.75 % vehicle treatment. The hepatocyte CLint at 1 μM in data set [1] was determined as 76 µL/min/1e6 cells. Besides, in the data set on human hepatocytes, the “Extraction Ratio (ER)” value worked out at 0.92. In the data set on MDR1, the efflux ratio at 2 h, 3 μM is 5.9 and the Papp A→B at 2 h, 3 μM worked out at 5 ×10⁻⁶ cm/s.

For `O=C1COc2ncccc2[C@H]2CC[C@H](CC2)OCC2[C@@H](NS(=O)(=O)C(F)(F)F)CCCN12` (stereo in doubt) [Compound 91], the “Mean cortical activation time (% vehicle treatment)” value with Sprague-Dawley rats (PO) was found to be 151.55 % vehicle treatment. The hepatocyte CLint at 1 μM in data set [1] came to 4.8 µL/min/1e6 cells. The “Extraction Ratio (ER)” value in the data set with human hepatocytes is on record as 0.42. In the data set with MDR1, the efflux ratio at 2 h, 3 μM came to 47 and the Papp A→B at 2 h, 3 μM worked out at 0.96 ×10⁻⁶ cm/s.

For the compound `Cc1ncnc2c1[C@H]1CC[C@H](CC1)OCC1[C@@H](NS(=O)(=O)C(F)(F)F)CCCN1C(=O)CO2` (stereo in doubt) [Compound 99], the “Mean cortical activation time (% vehicle treatment)” value in the data set with Sprague-Dawley rats (PO) was 97.17 % vehicle treatment. Further, the hepatocyte CLint at 1 μM in data set [1] was less than 1.4 µL/min/1e6 cells. For the same compound, in the data set on human hepatocytes, the “Extraction Ratio (ER)” value is reported as less than 0.22. In addition, in the data set on MDR1, the efflux ratio at 2 h, 3 μM is 52 and the Papp A→B at 2 h, 3 μM was found to be 0.46 ×10⁻⁶ cm/s.

Take `CC(C)(O)C(=O)N1CC[C@H](NS(C)(=O)=O)[C@@H]1Cc1cccc(-c2cc(F)cc(F)c2)c1F` [Reference Compound B, N-((2S,3S)-1-(2-hydroxy-2-methylpropanoy1)-2-((2,3′,5′-trifluorobipheny1-3-yl)methyl)pyrrolidin-3-yl)methanesulfonamide, reference compound]: the “Mean cortical activation time (% vehicle treatment)” value in the data set with Sprague-Dawley rats (PO) is 110.4 % vehicle treatment. Further, the hepatocyte CLint at 1 μM in data set [1] worked out at 1.5 µL/min/1e6 cells. Also, the “Extraction Ratio (ER)” value in the data set on human hepatocytes is 0.19. Also, in the data set with MDR1, the efflux ratio at 2 h, 3 μM was more than 100 and the Papp A→B at 2 h, 3 μM worked out at 0.21 ×10⁻⁶ cm/s.

Turning to `O=C1COc2ccccc2[C@H]2CC[C@H](CC2)OCC2[C@@H](NS(=O)(=O)C(F)(F)F)CCN12` (stereo in doubt) [Compound 100], the “Mean cortical activation time (% vehicle treatment)” value in the data set on Sprague-Dawley rats (PO) turned out to be 265.17 % vehicle treatment. Also, in data set [1], the hepatocyte CLint at 1 μM was determined as 2.5 µL/min/1e6 cells. Besides, the “Extraction Ratio (ER)” value with human hepatocytes was determined as 0.274. Besides, in the data set with MDR1, the efflux ratio at 2 h, 3 μM was found to be 1.3 and the apical-to-basolateral permeability (Papp A→B) at 2 h, 3 μM stood at 12 ×10⁻⁶ cm/s.

`O=C1COc2nccnc2[C@H]2CC[C@H](CC2)OCC2[C@@H](NS(=O)(=O)C(F)(F)F)CCCN12` (stereo in doubt) [Compound 98]: in the data set with Sprague-Dawley rats (PO), the “Mean cortical activation time (% vehicle treatment)” value worked out at 84.91 % vehicle treatment. The hepatocyte CLint at 1 μM in data set [1] is less than 1.4 µL/min/1e6 cells. The “Extraction Ratio (ER)” value with human hepatocytes was less than 0.22. Besides, in the data set with MDR1, the efflux ratio at 2 h, 3 μM was 57 and the Papp A→B at 2 h, 3 μM amounted to 0.52 ×10⁻⁶ cm/s.

As to `Cc1cccc2c1[C@H]1CC[C@H](CC1)OC[C@H]1[C@@H](NS(C)(=O)=O)CCN1C(=O)CO2` [Compound 20], the “Mean cortical activation time (% vehicle treatment)” value in the data set with Sprague-Dawley rats (PO) was determined as 154.26 % vehicle treatment. Also, the hepatocyte CLint at 1 μM in data set [1] amounted to 27 µL/min/1e6 cells. For the same compound, in the data set with human hepatocytes, the “Extraction Ratio (ER)” value came to 0.80. Further, in the data set with MDR1, the efflux ratio at 2 h, 3 μM was determined as 6.4 and the Papp A→B at 2 h, 3 μM stood at 6.8 ×10⁻⁶ cm/s.

Consider `Cc1ccnc2c1[C@H]1CC[C@H](CC1)OCC1[C@@H](NS(=O)(=O)C(F)(F)F)CCN1C(=O)CO2` (stereo in doubt) [Compound 94], for which the “Mean cortical activation time (% vehicle treatment)” value in the data set on Sprague-Dawley rats (PO) is 152.81 % vehicle treatment. The hepatocyte CLint at 1 μM in data set [1] was less than 1.9 µL/min/1e6 cells. In addition, the “Extraction Ratio (ER)” value with human hepatocytes is less than 0.22. Moreover, in the data set on MDR1, the efflux ratio at 2 h, 3 μM was 4.7 and the Papp A→B at 2 h, 3 μM was determined as 8.7 ×10⁻⁶ cm/s.

As to `Cc1ncnc2c1[C@H]1CC[C@H](CC1)OCC1[C@@H](NS(C)(=O)=O)CCCN1C(=O)CO2` (stereo in doubt) [Compound 27], the “Mean cortical activation time (% vehicle treatment)” value with Sprague-Dawley rats (PO) worked out at 138.57 % vehicle treatment. In addition, the hepatocyte CLint at 1 μM in data set [1] is less than 1.9 µL/min/1e6 cells. Further, in the data set with human hepatocytes, the “Extraction Ratio (ER)” value was less than 0.22. In addition, the efflux ratio at 2 h, 3 μM in the data set with MDR1 turned out to be 48.

In the case of `CC(C)S(=O)(=O)N[C@H]1CCN2C(=O)COc3c(F)cc(F)cc3[C@H]3CC[C@H](CC3)OC[C@@H]12` [Compound 29], the “Mean cortical activation time (% vehicle treatment)” value with Sprague-Dawley rats (PO) amounted to 214.61 % vehicle treatment. In addition, the hepatocyte CLint at 1 μM in data set [1] is 15 µL/min/1e6 cells. Moreover, in the data set with human hepatocytes, the “Extraction Ratio (ER)” value was 0.70. Further, in the data set on MDR1, the efflux ratio at 2 h, 3 μM was 2.5 and the Papp A→B at 2 h, 3 μM was determined as 6.4 ×10⁻⁶ cm/s.

As for `O=C1COc2cccc(F)c2[C@H]2CC[C@H](CC2)OCC2[C@@H](NS(=O)(=O)C(F)(F)F)CCCN12` (stereo in doubt) [Compound 95], the “Mean cortical activation time (% vehicle treatment)” value in the data set with Sprague-Dawley rats (PO) was determined as 312.26 % vehicle treatment. The hepatocyte CLint at 1 μM in data set [1] amounted to 3.3 µL/min/1e6 cells. The “Extraction Ratio (ER)” value in the data set with human hepatocytes worked out at 0.33. Also, in the data set on MDR1, the efflux ratio at 2 h, 3 μM was found to be 15 and the Papp A→B at 2 h, 3 μM turned out to be 2 ×10⁻⁶ cm/s.
